Reference: US20230406831A1, “COMPOUNDS AND METHODS OF INHIBITING BACTERIAL CHAPERONIN SYSTEMS” (THE TRUSTEES OF INDIANA UNIVERSITY, priority 2020, published 2023)

Legend:
HSP60/10 = molecular target: T1, HSP60/10 (Homo sapiens, UniProt P10809); test: HSP60/10-mediated dMDH refolding assay; format: biochemical; settings: Table 3; 37° C., 1 mM ATP; read-out: Biochemical Assay IC50 HSP60/10-dMDH Refolding
T1 construct: octa-Histidine (His8) tag, TEV-cleavable (N, cleaved yes); made in house; host or cells: HSP60 in Rosetta 2 (DE3) E. coli; HSP10 in Rosetta 2 (DE3) pLysS
Protocol: (§1) Evaluation of compounds ability to inhibit GroEL/ES and HSP60/10-mediated dMDH refolding assays.
(§2) Reagent preparation: For these assays, four primary reagent stocks were prepared: 1) GroEL/ES-dMDH or HSP60/10-dMDH binary complex stock; 2) ATP initiation stock; 3) EDTA quench stock; 4) MDH enzymatic assay stock. Denatured MDH (dMDH) was prepared by 2-fold dilution of MDH (5 mg/ml, soluble pig heart MDH from Roche, product #10127248001) with denaturant buffer (7 M guanidine-HCl, 200 mM Tris, pH 7.4, and 50 mM DTT). MDH was completely denatured by incubating at room temperature for 45 min. The binary complex solutions were prepared by slowly adding the dMDH stock to a stirring stock with GroEL (or HSP60) in folding buffer (50 mM Tris-HCl, pH 7.4, 50 mM KCl, 10 mM MglC2, and 1 mM DTT), followed by addition of GroES (or HSP10). The binary complex stocks were prepared immediately prior to dispensing into the assay plates and had final protein concentrations of 83.3 nM GroEL (Mr 800 kDa) or HSP60 (Mr 400 kDa), 100 nM GroES or HSP10 (Mr 70 kDa), and 20 nM dMDH in folding buffer. For the ATP initiation stock, ATP solid was diluted into folding buffer to a final concentration of 2.5 mM. Quench solution contained 600 mM EDTA (pH 8.0). The MDH enzymatic assay stock consisted of 20 mM sodium mesoxalate and 2.4 mM NADH in reaction buffer (50 mM Tris-HCl, pH 7.4, 50 mM KC1, and 1 mM DTT).
(§3) Assay Protocol: First, 30 μL aliquots of the GroEL/ES-dMDH or HSP60/10-dMDH binary complex stocks were dispensed into clear, 384-well polystyrene plates. Next, 0.5 μL of the compound stocks (10 mM to 4.6 μM, 3-fold dilutions series in DMSO) were added by pin-transfer (V&P Scientific). The chaperonin-mediated refolding cycles were initiated by addition of 20 IA of ATP stock (reagent concentrations during refolding cycle: 50 nM GroEL or HSP60, 60 nM GroES or HSP10, 12 nM dMDH, 1 mM ATP, and compounds of 100 μM to 46 nM, 3-fold dilution series). The refolding reactions were incubated at 37° C. The incubation time was determined from refolding time-course control experiments until they reached ˜90% completion of refolding cycle — generally ˜20-40 min for GroEL/ES, and ˜40-60 min for HSP60/10). Next, the assay was quenched by addition of 10 μL of the EDTA to final concentration of 100 mM. […] A340 nm measurements were recorded at 0.5 minutes (start point) and at successive time points until the amount of NADH consumed reached ˜90% (end point, generally between 20-35 minutes). The differences between the start and end point A340 values were used to calculate the % inhibition of the GroEL/ES or HSP60/10 machinery by the compounds. IC50 values for the test compounds were obtained by plotting the % inhibition results in GraphPad Prism 6 and analyzing by non-linear regression using the log (inhibitor) vs. response (variable slope) equation. Results presented represent the averages of IC50 values obtained from at least quadriplicate (duplicate of duplicate) replicates. For results, see Tables 1, 2, and 3.

S. aureus = S. aureus bacterial proliferation assay; format: cell-based; settings: Staphylococcus aureus; Table 3; cation adjusted BHI media, OD600 at 6-8 h; read-out: S. aureus Proliferation EC50
Protocol: Evaluation of compounds for inhibition of bacterial cell proliferation.
Growth Media: S. aureus bacteria were grown in Brain Heart Infusion (BHI) broth/agar (Becton, Dickinson and Company). All liquid cultures were grown in BHI media supplemented with 25 mg/L Ca^2+ and 12.5 mg/L Mg^2+ to mimic free physiological concentrations of these cations. A 10 mg/mL Ca^2+ stock solution was prepared by dissolving 3.68 g of CaCl2·2H^2O in 100 mL of deionized water, and a 10 mg/mL Mg^2+ stock solution was prepared by dissolving 8.36 g of […] in 100 mL deionized water. Both stock solutions were filter-sterilized using 0.2 μm pore size cellulose-acetate filters. 2.5 mL of the sterile 10 mg/mL Ca^2+ stock and 1.25 mL of the sterile 10 mg/mL Mg^2+ stock solutions were added per 1 L of autoclaved BHI medium to obtain 25 mg/L Ca^2+ and 12.5 mg/L Mg^2+ ions, respectively.
General Assay Protocol: Stock bacterial cultures were streaked onto BHI agar plates and grown overnight at 37° C. Fresh aliquots of broth were inoculated with single bacterial colonies and the cultures were grown overnight at 37° C. with shaking (240 rpm) in cation adjusted BHI media. The following morning, the overnight cultures were sub-cultured (1:5 dilution) into fresh aliquots of cation adjusted BHI media and grown at 37° C. for 1-2 hours with shaking. After 2 h, cultures were diluted into fresh media to achieve final OD600 readings of 0.017. Aliquots of these diluted cultures (30 μL) were added to clear, flat-bottom, 384-well polystyrene plates that were stamped with 0.5 μL of test compounds in 20 μL media. Compounds were evaluated in dose-response format where the inhibitor concentration range during the proliferation assay was 100 μM to 46 nM (3-fold dilution series). Plates were sealed with “Breathe Easy” oxygen permeable membranes (Diversified Biotech) and left to incubate at 37° C. without shaking (stagnant assay). OD600 nm readings were taken generally at 6-8 h, when bacteria had reached log-phase growth. A second set of baseline control plates were prepared analogously, but without any bacteria added, to correct for possible compound absorbance and/or precipitation. Plates were then read at 600 nm using a Molecular Devices SpectraMax Plus384 microplate reader. EC50 values for the test compounds were obtained by plotting the OD600 results in GraphPad Prism and analyzing by non-linear regression using the log(inhibitor) vs. response (variable slope) equation. For results, see Tables 1, 2, and 3.

[1] = HEK 293 kidney cell viability / cytotoxicity assay (Alamar Blue); format: cell-based; settings: human, HEK 293 kidney cells; Table 3; 48 h incubation, Alamar Blue; read-out: HEK 293 Kidney Cell Viability CC50
Protocol: Evaluating compound effects on kidney cell viability.
HEK 293 cells were maintained in MEM medium (Corning Cellgro, 10-009 CV) supplemented with 10% FBS (Sigma, F2242). […] Cells at 80% confluence were harvested and diluted in growth medium, then 45 μL of the HEK 293 cells (1,500 cells/well) were dispensed per well, and plates were sealed with “Breathe Easy” oxygen permeable membranes (Diversified Biotech) and incubated at 37° C., 5% CO2, for 24 h. […] Plates were sealed with “Breathe Easy” oxygen permeable membranes and incubated for an additional 48 h at 37° C. and 5% CO2. The Alamar Blue reporter reagents were then added to a final concentration of 10%, the plates incubated at 37° C. and 5% CO2, and sample fluorescence (535 nm excitation, 590 nm emission) was read using a Molecular Devices FlexStation II 384-well plate reader (readings taken between 4-24 h of incubation so as to achieve signals in the 30-60% range for conversion of resazurin to resorufin). Cell viability was calculated as per vendor instructions (Thermo Fisher—Alamar Blue cell viability assay manual).

GroEL/ES = molecular target: T2, GroEL/ES (Escherichia coli, UniProt P0A6F5); test: GroEL/ES-mediated dMDH refolding assay; format: biochemical, E. coli; settings: Table 3; 37° C., 1 mM ATP; read-out: Biochemical Assay IC50 GroEL/ES-dMDH Refolding
T2 construct: made in house; host or cells: GroEL in E. coli DH5a; GroES in E. coli BL21 (DE3)
Protocol: as §1, §2, §3

T1 sequence (P10809 27-573): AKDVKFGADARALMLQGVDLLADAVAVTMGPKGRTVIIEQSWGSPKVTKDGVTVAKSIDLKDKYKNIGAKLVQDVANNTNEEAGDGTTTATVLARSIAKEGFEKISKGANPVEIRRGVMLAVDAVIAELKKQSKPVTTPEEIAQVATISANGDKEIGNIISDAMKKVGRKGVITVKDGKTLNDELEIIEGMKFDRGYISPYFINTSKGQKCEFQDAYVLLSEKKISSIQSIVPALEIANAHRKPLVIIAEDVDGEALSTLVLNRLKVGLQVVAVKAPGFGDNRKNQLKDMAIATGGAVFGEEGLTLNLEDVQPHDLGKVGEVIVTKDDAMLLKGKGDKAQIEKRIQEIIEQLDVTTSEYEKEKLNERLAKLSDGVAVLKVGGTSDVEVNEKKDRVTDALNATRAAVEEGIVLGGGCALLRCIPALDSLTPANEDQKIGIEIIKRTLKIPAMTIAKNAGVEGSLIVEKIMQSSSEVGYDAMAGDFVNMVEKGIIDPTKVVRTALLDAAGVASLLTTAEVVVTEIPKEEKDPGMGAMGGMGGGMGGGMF
T2 sequence (P0A6F5 2-548): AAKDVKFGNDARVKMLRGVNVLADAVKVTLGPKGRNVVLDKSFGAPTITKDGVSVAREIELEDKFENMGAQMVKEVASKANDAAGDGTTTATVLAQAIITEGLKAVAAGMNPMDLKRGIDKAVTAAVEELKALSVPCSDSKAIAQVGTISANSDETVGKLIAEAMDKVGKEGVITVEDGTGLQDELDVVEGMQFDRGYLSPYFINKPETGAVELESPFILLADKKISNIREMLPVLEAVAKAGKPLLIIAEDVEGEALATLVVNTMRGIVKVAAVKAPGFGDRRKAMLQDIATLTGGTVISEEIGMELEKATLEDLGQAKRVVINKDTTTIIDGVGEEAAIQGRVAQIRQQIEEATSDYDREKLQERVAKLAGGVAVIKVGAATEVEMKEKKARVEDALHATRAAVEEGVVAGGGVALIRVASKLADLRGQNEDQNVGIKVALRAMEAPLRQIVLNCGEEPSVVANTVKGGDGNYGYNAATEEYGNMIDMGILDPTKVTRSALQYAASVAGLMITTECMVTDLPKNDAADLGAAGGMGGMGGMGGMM

O=C(O)c1ccc(NC(=O)c2cc(Cl)ccc2O)cc1 [Compound 109, 4-(5-chloro-2-hydroxybenzamido)benzoic acid]
> 100 µM: IC50 (HSP60/10) | EC50 (S. aureus) | CC50 at 48 h [1] | IC50 (GroEL/ES)
